This is an account of results in publication PMC9067539 (Bioorganic & medicinal chemistry letters, 2022).

Read-outs that look alike come from different tables or passages of the source.

The target of series [1] is T1, DYRK1A (Rattus norvegicus, UniProt Q63470). The series can be described thus: DYRK1A ELISA assay with varying concentrations of ATP. Type of series: biochemical. Particulars: [ATP] up to 0.8 mM.
Series [2] in a line: Stability in biological media. It is filed as in vitro ADME. Particulars: biological media (plasma and hepatocytes media).
In series [3] the target is T1, DYRK1A. The series can be described thus: DYRK1A ELISA kinase assay. It is filed as biochemical. The following applies: for times less potent against DYRK1A compared to the di-hydroxy derivatives: A-ring hydroxyl removal, vs GCG.
The subject of series [4] is MOG35–55-induced murine model of chronic progressive Experimental Autoimmune Encephalomyelitis (EAE). The experiment in a line: EAE therapeutic model, disease scores. Type of series: in vivo.
In series [5] the test system is spinal cord inflammation, demyelination, and axonal neurodegeneration. The series can be described thus: Histopathological analysis of spinal cord sections of EAE mice. Type of series: in vivo. Particulars: intranasal vs oral, 15 mg/kg BID.
For series [6] the following is noted: mice; cited from earlier work.
For series [7] the following is noted: cited from earlier work.
Series [8] can be described thus: Exposure after intranasal compared to oral route. Type of series: in vivo. Particulars: brain and peripheral blood; data not shown.

Turning to `O=C(O[C@@H]1Cc2c(O)cc(O)cc2O[C@H]1c1cc(O)c(O)c(O)c1)c1cc(O)c(O)c(O)c1` [(−)GCG, reference compound], the “effect of [ATP] on inhibitory potency” value on DYRK1A [1] is reported as “only marginally affected”.

As to `O=C(OC1Cc2ccccc2CC1c1cc(O)c(O)c(O)c1)c1cc(O)c(O)c(O)c1` (centres unmarked) [1c], in series [2], the “stability in biological media” value was “does not improve stability in biological media”. For `O=C(O[C@@H]1Cc2c(O)cc(O)cc2O[C@H]1c1cc(O)c(O)c(O)c1)c1cc(O)c(O)c(O)c1F` [1f], on DYRK1A [3], the “fold improvement in activity against DYRK1A compared to GCG” value is reported as “about 3 fold”. Moreover, the “effect of [ATP] on inhibitory potency” value on DYRK1A [1] was “only marginally affected”. Besides, the EAE disease scores entry is reported as “reversal of the disease scores similar to that observed with FTY720” in series [4] (intranasal, 15 mg/kg twice daily) and “no significant amelioratory effect until the last two days of the study” in series [4] (oral (PO), 15 mg/kg BID). Further, the “spinal cord lesion severity, intranasal versus oral administration” value in series [5] is recorded as “more effective at reducing lesion severity than oral administration”.

As to `O=C(O[C@@H]1Cc2c(O)cc(O)cc2O[C@@H]1c1cc(O)c(O)c(O)c1)c1cc(O)c(O)c(O)c1` [EGCG, Epigallocatechin gallate], the EAE disease scores result in series [4] (oral (PO), 15 mg/kg BID) is “did not see any significant activity”. The “oral bioavailability (F)” value in series [6] was “up to 12%”; in series [7] (rats) it was “up to 5%”. For `O=C(O[C@@H]1Cc2c(O)cc(O)cc2O[C@H]1c1ccc(O)c(O)c1)c1cc(O)c(O)c(O)c1` [CG, catechin gallate], the “exposure increase with intranasal compared to the oral route” value in series [8] came out at 50 fold. On to `CCCCCCCCc1ccc(CCC(N)(CO)CO)cc1` [FTY720, Fingolimod, reference compound], for which the EAE disease scores result in series [4] (1 mg/kg QD) is reported as “reversal of the disease scores”. `O=C(OC1Cc2c(O)cccc2OC1c1cc(O)c(O)c(O)c1)c1cc(O)c(O)c(O)c1` (centres unmarked) [1b]: at DYRK1A [3], the “times less potent against DYRK1A compared to the di-hydroxy derivatives” value is on record as approximately 2 times. Turning to `O=C(O[C@H]1Cc2ccccc2O[C@@H]1c1cc(O)c(O)c(O)c1)c1cc(O)c(O)c(O)c1` (racemic) [1a], on DYRK1A [3], the “times less potent against DYRK1A compared to the di-hydroxy derivatives” value is recorded as “about 4 times”. In addition, the IC50 (usually the concentration needed to halve the response being measured) on DYRK1A [3] (read-out: DYRK1A IC50, ELISA assay) was found to be 422 nM. The compound `Oc1cc(O)c2c(c1)O[C@H](c1cc(O)c(O)c(O)c1)[C@H](O)C2` [EGC, EpiGalloCatechin, reference compound] registered a half-inhibitory concentration (IC50) against DYRK1A [3] of more than 100000 nM. Turning to `O=C(O[C@@H]1Cc2c(O)cc(O)cc2O[C@H]1c1ccc(O)c(O)c1)c1cc(O)c(O)c(O)c1F` (racemic) [1r], the “fold more potent than catechin gallate (CG)” value on DYRK1A [3] was “about 3 fold”. Besides, the “stability in biological media” value in series [2] is reported as “improved stability in biological media”. As to `O=C(O[C@@H]1Cc2c(O)cc(O)cc2O[C@H]1c1cc(O)c(O)c(O)c1F)c1cc(O)c(O)c(O)c1` [1n], the “stability in biological media” value in series [2] was “did not translate into a stability improvement in biological media”. With `COc1cc(C(=O)O[C@@H]2Cc3c(O)cc(O)cc3O[C@@H]2c2cc(O)c(O)c(O)c2)cc(O)c1O` [EGCG-3”OMe], in series [7], the “fold improved oral bioavailability than EGCG” value was “about 6 fold”.
